According to patent US20230257351A1, “SUBSTITUTED N-[…] HAVING P2X4 RECEPTOR ANTAGONISTIC ACTIVITY” (Bayer Aktiengesellschaft, priority 2020, published 2023):

Tests used:
[1] = target: T1, human P2X4 (Homo sapiens, UniProt Q99571); assay: Human P2X4 HEK Cell FLIPR Assay; format: cell-based; settings: HEK293 stably expressing human P2X4, agonist Bz-ATP 3 μM (EC80); for IC50: read-out: Human P2X4 HEK Cells (FLIPR Assay) avg IC50
T1 construct: expressed in transfected cells
T1 sequence (Q99571 1-388): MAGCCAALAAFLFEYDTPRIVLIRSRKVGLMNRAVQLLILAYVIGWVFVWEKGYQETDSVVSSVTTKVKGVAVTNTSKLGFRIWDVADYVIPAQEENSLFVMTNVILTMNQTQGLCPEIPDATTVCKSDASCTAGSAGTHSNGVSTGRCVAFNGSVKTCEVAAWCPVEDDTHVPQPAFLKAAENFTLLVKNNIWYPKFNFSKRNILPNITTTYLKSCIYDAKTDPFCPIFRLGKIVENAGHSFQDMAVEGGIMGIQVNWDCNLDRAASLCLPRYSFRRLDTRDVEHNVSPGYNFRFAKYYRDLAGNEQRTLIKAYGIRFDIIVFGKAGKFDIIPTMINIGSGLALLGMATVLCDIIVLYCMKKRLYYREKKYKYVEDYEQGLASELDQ
Summary of the method: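 Compounds were preincubated 30 min at room temperature on Fluo8-AM-loaded HEK293 cells stably expressing human P2X4. The response was the calcium fluorescence rise on Bz-ATP addition.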

[2] = target: T2, rat P2X4 (Rattus norvegicus, UniProt P51577); assay: FLIPR Method for Rat P2X4 1321N1 Astrocytoma Cells; format: cell-based; settings: 1321N1 stably expressing rat P2X4; agonist MgATP 5 μM (EC80)
T2 construct: expressed in transfected cells
T2 sequence (P51577 1-388): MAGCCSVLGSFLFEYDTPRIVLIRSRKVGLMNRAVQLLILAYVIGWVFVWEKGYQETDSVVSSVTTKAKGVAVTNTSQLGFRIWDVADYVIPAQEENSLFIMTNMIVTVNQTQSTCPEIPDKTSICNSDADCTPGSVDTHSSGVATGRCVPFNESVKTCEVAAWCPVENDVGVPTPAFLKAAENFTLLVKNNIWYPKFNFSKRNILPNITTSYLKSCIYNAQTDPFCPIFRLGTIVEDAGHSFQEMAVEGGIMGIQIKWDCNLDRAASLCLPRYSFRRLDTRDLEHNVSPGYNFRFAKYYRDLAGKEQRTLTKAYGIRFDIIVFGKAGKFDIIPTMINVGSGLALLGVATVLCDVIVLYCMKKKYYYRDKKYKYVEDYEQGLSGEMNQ
Summary of the method: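 1321N1 cells stably expressing rat P2X4, Fluo8-AM loaded; compounds (25 μM to 1 nM final, ten concentrations) preincubated 30 min at room temperature, then MgATP added at 5 μM (EC80). Calcium fluorescence read on FLIPR before and after agonist; triplicate data normalized to agonist control, four-parameter fit gives IC50.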

Structure (SMILES) | Human P2X4 HEK Cells (FLIPR Assay) avg Efficacy [1] [%] | IC50 [1] [µM] | IC50 [2] [µM] | Rat P2X4 1321N1 Astrocytoma Cells (FLIPR Assay) avg Efficacy [2] [%]
CC(=O)N(c1ccc(F)c(Cl)c1)c1cc(NC(=O)Cc2ccc(F)cc2Cl)ccn1 [Example 51, N-(3-chloro-4-fluorophenyl)-N-{4-[2-(2-chloro-4-fluorophenyl)acetamido]pyridin-2-yl}acetamide] | 98 | 0.493 | 0.177 | 96
CC(=O)N(c1cccc(Cl)c1)c1cc(NC(=O)Cc2ccc(F)cc2Cl)ccn1 [Example 132, N-{4-[2-(2-chloro-4-fluorophenyl)acetamido]pyridin-2-yl}-N-(3-chlorophenyl)acetamide] | 98 | 0.299 | 0.228 | 97
CC(=O)N(c1ccc(F)cc1)c1cc(NC(=O)Cc2ccccc2OC(F)(F)F)ccn1 [Example 42, N-(4-fluorophenyl)-N-(4-{2-[2-(trifluoromethoxy)phenyl]acetamido}pyridin-2-yl)acetamide] | 98 | 0.35 | 1.36 | 96
CC(=O)N(c1cc(F)cc(F)c1)c1cc(NC(=O)Cc2cccc(F)c2Cl)ccn1 [Example 88, N-{4-[2-(2-chloro-3-fluorophenyl)acetamido]pyridin-2-yl}-N-(3,5-difluorophenyl)acetamide] | 97 | 0.198 | 0.451 | 100
CC(=O)N(c1cc(F)cc(F)c1)c1cc(NC(=O)Cc2c(Cl)cc(F)cc2Cl)ccn1 [Example 90, N-{4-[2-(2,6-dichloro-4-fluorophenyl)acetamido]pyridin-2-yl}-N-(3,5-difluorophenyl)acetamide] | 98 | 0.272 | 0.11 | 97
CC(=O)N(c1cc(F)cc(F)c1)c1cc(NC(=O)Cc2ccccc2OC(F)(F)F)ccn1 [Example 91, N-(3,5-difluorophenyl)-N-(4-{2-[2-(trifluoromethoxy)phenyl]acetamido}pyridin-2-yl)acetamide] | 98 | 0.345 | 1.63 | 100
CCCC(=O)N(c1ccc(F)cc1)c1cc(NC(=O)Cc2ccccc2Cl)ccn1 [Example 143, N-{4-[2-(2-chlorophenyl)acetamido]pyridin-2-yl}-N-(4-fluorophenyl)butanamide] | 94 | 0.723 | 0.934 | 101
CC(=O)N(c1ccc(F)c(C#N)c1)c1cc(NC(=O)Cc2ccc(F)cc2Cl)ccn1 [Example 22, N-{4-[2-(2-chloro-4-fluorophenyl)acetamido]pyridin-2-yl}-N-(3-cyano-4-fluorophenyl)acetamide] | 98 | 0.482 | 0.217 | 95
CC(=O)N(c1ccc(F)c(Cl)c1)c1cc(NC(=O)Cc2cccc(F)c2Cl)ccn1 [Example 52, N-(3-chloro-4-fluorophenyl)-N-{4-[2-(2-chloro-3-fluorophenyl)acetamido]pyridin-2-yl}acetamide] | 98 | 0.355 | 0.358 | 99
CC(=O)N(c1ccc(F)c(F)c1)c1cc(NC(=O)Cc2ccccc2OC(F)(F)F)ccn1 [Example 76, N-(3,4-difluorophenyl)-N-(4-{2-[2-(trifluoromethoxy)phenyl]acetamido}pyridin-2-yl)acetamide] | 97 | 0.397 | 0.667 | 99
CC(=O)N(c1ccc(F)c(F)c1)c1cc(NC(=O)Cc2cccc(C)c2C)ccn1 [Example 62, N-(3,4-difluorophenyl)-N-{4-[2-(2,3-dimethylphenyl)acetamido]pyridin-2-yl}acetamide] | 91 | 0.251 | 0.368 | 91
CC(=O)N(c1cc(NC(=O)Cc2ccccc2Cl)ccn1)c1cc(F)ccc1Cl [Example 111, N-(2-chloro-5-fluorophenyl)-N-{4-[2-(2-chlorophenyl)acetamido]pyridin-2-yl}acetamide] | 96 | 0.204 | 0.32 | 100
CC(=O)N(c1ccc(F)cc1)c1cc(NC(=O)Cc2c(C)cccc2C)ccn1 [Example 34, N-{4-[2-(2,6-dimethylphenyl)acetamido]pyridin-2-yl}-N-(4-fluorophenyl)acetamide] | 97 | 0.199 | 0.17 | 94
CC(=O)N(c1ccc(F)cc1)c1cc(NC(=O)Cc2ccc(F)cc2Cl)ccn1 [Example 37, N-{4-[2-(2-chloro-4-fluorophenyl)acetamido]pyridin-2-yl}-N-(4-fluorophenyl)acetamide] | 95 | 0.894 | 0.242 | 96
CC(=O)N(c1cc(NC(=O)Cc2ccc(F)cc2Cl)ccn1)c1cc(F)ccc1Cl [Example 112, N-(2-chloro-5-fluorophenyl)-N-{4-[2-(2-chloro-4-fluorophenyl)acetamido]pyridin-2-yl}acetamide] | 96 | 0.403 | 0.408 | 97
CC(=O)N(c1ccccc1)c1cc(NC(=O)Cc2ccccc2Cl)ccn1 [Example 25, N-{4-[2-(2-chlorophenyl)acetamido]pyridin-2-yl}-N-phenylacetamide] | 100 | 0.524 | 0.851 | 100
CC(=O)N(c1cccc(C#N)c1)c1cc(NC(=O)Cc2c(Cl)cccc2Cl)ccn1 [Example 14, N-(3-cyanophenyl)-N-{4-[2-(2,6-dichlorophenyl)acetamido]pyridin-2-yl)acetamide] | 100 | 0.243 | 0.201 | 98
CC(=O)N(c1ccc(F)c(F)c1)c1cc(NC(=O)Cc2ccc(Cl)cc2Cl)ccn1 [Example 67, N-{4-[2-(2,4-dichlorophenyl)acetamido]pyridin-2-yl}-N-(3,4-difluorophenyl)acetamide] | 94 | 0.604 | 0.159 | 97
CC(=O)N(c1cccc(F)c1)c1cc(NC(=O)Cc2c(Cl)cccc2Cl)ccn1 [Example 56, N-{4-[2-(2,6-dichlorophenyl)acetamido]pyridin-2-yl}-N-(3-fluorophenyl)acetamide] | 97 | 0.26 | 0.19 | 98
